The results in this text go back to patent publication EP0626943B1, “BISTRIAZENES AS CHEMOTHERAPEUTIC AGENTS” (THE GOVERNMENT OF THE UNITED STATES OF AMERICA as …, priority 1991, dated 1993).

In one data set the test system is human tumor cell lines. As to the kind of experiment: Clonogenic assay against a panel of human tumor cells (Figures 1-4). The data set is classed as cell-based. The note with it: for cytotoxicity, overall statement: clonogenic assay, no concentration given. The protocol:
Clonogenic Assay. The response of a variety of human tumor cell lines to bistriazenes was determined via the clonogenic assay described in Fiebig et al. (1987) European Journal of Cancer and Clinical Oncology 23: 937-948.
(§1) Briefly, the assay system consists of a modified, two-layer soft agar culture system. The bottom layer consists of 1 ml of modified Dulbecco medium supplemented with L-glutamine, containing 10% fetal calf serum and 0.5% agar, in a 35 mm petri-dish. The upper layer contains 2-5 x 10^5 viable human tumor cells suspended in a 1 ml volume, consisting of 0.3% agar, 30% fetal calf serum, and the medium. The drugs to be tested, contained in 1 ml of medium containing 30% fetal calf serum, are included in the upper layer. Control plates are identical, except for the omission of the drugs. The plates are incubated at 37°C in a humidified atmosphere containing 7% carbon dioxide for varying periods (7-21 days). The time in culture is determined by the rate of colony formation in the control plates. At the end of the culture period, the number of colonies in the drug treated cultures is compared to the number of colonies in the control plates, after visualization of the live colonies by staining with tetrazolium chloride.
The tumors included those derived from colon cancer, three types of lung cancer, mammary cancer, ovarian cancer, two types of kidney cancer, a mesothelioma, a gastric cancer, and a sarcoma. These tumors represent some of the most important cancers for which current treatments are inadequate. For comparison, the assays of the various bistriazenes were compared to the response induced in the same tumors by DTIC, a drug employed in clinical practice.

In the next data set the test system is LXFL 529. As to the kind of experiment: Clonogenic assay (two-layer soft agar culture). The data set is classed as cell-based. To be noted: Homo sapiens. The protocol:
as §1

The next data set deals with PRCL DU145X. Nature of the data set: Clonogenic assay (two-layer soft agar culture). To be noted: Homo sapiens, read-out: Test/Control (%) at Drug Concentration (µg/ml). In kind it is cell-based. As for the experimental part:
as §1

The subject of the next data set is RXF 1220. As to the kind of experiment: Clonogenic assay (two-layer soft agar culture). The data set is classed as cell-based. The note with it: Homo sapiens, read-out: Test/Control (%) at Drug Concentration (µg/ml). As for the experimental part: as §1
Data set [1] can be described thus: Solubility observed on isolation. In kind it is physicochemical. As for the experimental part: A solution of 3.95 g (25 mmoles) of 2-bromopyridine in 20 ml of dry pentane was added dropwise to 10 ml. of 2.5M butylithium in hexane at -78°C. To the resulting yellow slurry was added dropwise with stirring 1.75 g (12.5 mmoles) of 1,4-diazidobutane in 10 ml. of pentane. Stirring was continued for 2 hr. at -78° and then the reaction mixture was allowed to warm to room temperature. The reaction mixture was treated with 60 ml. of ammonium buffer which caused a precipitate to appear after the reaction was cooled to -78°C. The solid was filtered off. […] The yield was 2.3 g., m.p. 133-136. Spectroscopic data were consistent with the structure.
A solution of butyllithium in hexane (5 ml., 2.5M) was dissolved in 10 ml. of tetrahydrofuran and cooled to -78°C. To this was added dropwise with stirring a solution of 1.98 g (12.5 mmoles) of 2-bromopyridine in 10 ml. of tetrahydrofuran. The dark yellow solution of the pyridine anion was mixed with a solution of 0.70 g (6.2 mmoles) of 1,2-diazidoethane in 10 ml. of tetrahydrofuran at -78°C. After 1 hr. of stirring the dark green solution was treated with 10 ml. of ammonium buffer. The color changed to yellow. The organic solvent was removed in vacuo, and the precipitate was isolated by filtration and washed with copious quantities of diethylether. The powdery material was finally dried under high vacuum. The yield was 770 mg. […] The spectra, however, were fully consistent with the structure.

The test system of data set [2] is 32P-endlabeled oligonucleotide. As to the kind of experiment: Oligonucleotide crosslinking assay. In kind it is biochemical. To be noted: 37°C, 42 hours, pH 7.4. As for the experimental part:
A solution of 6.2 ng of ^32P-endlabeled oligonucleotide in 0.1 M cacodylic acid buffer (0.1 M NaCl, pH 7.4) was allowed to react with the desired compound dissolved in 1/10 volume DMSO. Final concentrations of the compounds in the oligonucleotide solution were 0.1 mM NMUST, 1.0 mM CCNU, or 10 mM bistriazene. Reactions were incubated at 37°C for 42 hours, and analyzed by denaturing polyacrylamide gel electrophoresis (20% gel) followed by autoradiography. the gels were intentionally overexposed to better visualize bands corresponding to interstrand crosslinks. Large amounts of unreacted oligonucleotides were also visualized under these conditions.

Where [3] appears, read: 1.0 µg/ml, LXFL 529 large cell lung cancer line, read-out: Test/Control (%) at Drug Concentration (µg/ml).
[4] abbreviates: 10.0 µg/ml, LXFL 529 large cell lung cancer line, read-out: Test/Control (%) at Drug Concentration (µg/ml).
The mark [5] stands for this setting: 100.0 µg/ml, LXFL 529 large cell lung cancer line, read-out: Test/Control (%) at Drug Concentration (µg/ml).
[6] abbreviates: 1.0 µg/ml, PRCL DU145X prostate carcinoma.
Setting [7] is: 10.0 µg/ml, PRCL DU145X prostate carcinoma.
Setting [8] is: 100.0 µg/ml, PRCL DU145X prostate carcinoma.
[9] abbreviates: 1.0 µg/ml, RXF 1220 renal carcinoma.
[10] abbreviates: 10.0 µg/ml, RXF 1220 renal carcinoma.
Setting [11] is: 100.0 µg/ml, RXF 1220 renal carcinoma.
The mark [12] stands for this setting: 10 ug/ml, panel of human tumor cell lines.
The mark [13] stands for this setting: 100 ug/ml, panel of human tumor cell lines.
Setting [14] is: 1 ug/ml, panel of human tumor cell lines.
Setting [15] is: LXFL 529, read-out: Test/Control (%) at Drug Concentration (µg/ml).

Each structure is given as a SMILES string. Read-outs that look alike come from different tables or passages of the source.

Regarding `CN(C)N=Nc1[nH]cnc1C(N)=O` [DTIC, 5-(3,3-dimethyltriazeno)imidazole-4-carboxamide, reference compound], the cytotoxic activity result with human tumor cell lines (3 ug/ml, panel of human tumor cell lines) was “marginal activity against the gastric cancer”; in the data set with human tumor cell lines (30 ug/ml, panel of human tumor cell lines), “activity against the gastric carcinoma GXF251/16 and the ovarian cancer OVXF899/9”; with human tumor cell lines (300 ug/ml, panel of human tumor cell lines), “potently cytotoxic on all cell lines”. In addition, the activity at 1 µg/mL was found to be 63% in the data set on LXFL 529 (setting [3]), 70% with PRCL DU145X (setting [6]) and 54% with RXF 1220 (setting [9]). Also, the activity at 10 µg/mL with LXFL 529 (setting [4]) was 35%; in the data set on PRCL DU145X (setting [7]), 44%; in the data set on RXF 1220 (setting [10]), 44%. Besides, the activity at 100 µg/mL in the data set with LXFL 529 (setting [5]) was determined as 8%; in the data set on PRCL DU145X (setting [8]) it was 43%; in the data set with RXF 1220 (setting [11]), 24%.

For the molecule `CNN=NCCN=NNC` [bis(methyltriazeno)ethane, 1,2-Bis(methyltriazeno)ethane], the cytotoxic activity entry in the data set on human tumor cell lines (setting [12]) was “only marginal, but significant, activity was seen in the large cell lung cancer and in the mammary cancer”; in the data set on human tumor cell lines (100 ug/ml, mesothelioma, gastric carcinoma, renal cancer RXF 423/17), “Relatively little or no activity”; with human tumor cell lines (setting [13]), “highly cytotoxic at 100 ug/ml to most of the tumor cell lines”.

As to `c1ccc(NN=NCCN=NNc2ccccn2)nc1` [compound 15, 1,2-Bis(2-pyridyltriazeno)ethane], the solubility entry in data set [1] (common solvents) was “not soluble in most solvents, except dimethylsulfoxide”.

On to `c1ccc(NN=NCCCCN=NNc2ccccn2)nc1` [compound 14, 1,4-Bis(2-pyridyltriazeno)butane], for which the solubility result in data set [1] (common solvents) was “poorly soluble in common solvents such as halomethanes, acetone, methanol and water”; in data set [1] (dimethylsulfoxide), “sparingly soluble”.

In the case of `O=NN(CCCl)C(=O)NC1CCCCC1` [CCNU, 1-(2-chloroethyl)-3-cyclohexyl-1-nitrosourea, reference compound], the “interstrand crosslinking of oligonucleotides” value (“interstrand crosslinking” below) in data set [2] (1.0 mM CCNU) is recorded as “not as effective at forming crosslinks as the p-xylyl bistriazene derivative”.

Turning to `c1cncc(N=NNCCNN=Nc2cccnc2)c1` [Example 1a, bis(3-pyridyltriazeno)ethane], in the data set with human tumor cell lines, the “cytotoxicity, overall statement” value is recorded as “potently cytotoxic”. Further, the activity at 1 µg/mL worked out at 51% with LXFL 529 (setting [3]), 84% in the data set on PRCL DU145X (setting [6]) and 99% in the data set on RXF 1220 (setting [9]). In addition, the activity at 10 µg/mL with LXFL 529 (setting [4]) amounted to 0%; in the data set on PRCL DU145X (setting [7]), 44%; in the data set on RXF 1220 (setting [10]) it was 74%. Further, the activity at 100 µg/mL is 0% with LXFL 529 (setting [5]), 0% in the data set with PRCL DU145X (setting [8]) and 4% with RXF 1220 (setting [11]).

Regarding `c1cncc(N=NNCCCCNN=Nc2cccnc2)c1` [Example 1b], in the data set with human tumor cell lines, the “cytotoxicity, overall statement” value is “potently cytotoxic”. Besides, the activity at 1 µg/mL worked out at 71% in the data set on LXFL 529 (setting [3]), 94% with PRCL DU145X (setting [6]) and 82% in the data set with RXF 1220 (setting [9]). The activity at 10 µg/mL in the data set on LXFL 529 (setting [4]) worked out at 1%; in the data set with PRCL DU145X (setting [7]) it was 62%; in the data set with RXF 1220 (setting [10]), 70%. Besides, the activity at 100 µg/mL with LXFL 529 (setting [5]) was 1%; with PRCL DU145X (setting [8]), 4%; with RXF 1220 (setting [11]), 8%.

With `CNN=NCc1ccc(CN=NNC)cc1` [bis(methyltriazeno)-p-xylene, 1,4-Bis(methyltriazenomethyl)benzene], the “interstrand crosslinking” value in data set [2] (10 mM bistriazene, listed as p-xylyl) is reported as “produce stable crosslinked species in oligonucleotides”; in data set [2] (10 mM bistriazene, listed as p-xylyl bistriazene) it was “stably covalently crosslinked”. Further, the cytotoxic activity entry is given as “Some activity was also evident at a dose of 1 ug/ml in about half the cell lines” with human tumor cell lines (setting [14]), “toxicity against approximately half of the cell lines examined” in the data set on human tumor cell lines (setting [12]) and “highly toxic to all tumor cell lines” in the data set on human tumor cell lines (setting [13]).

As for `CNN=NC/C=C/CN=NNC` [1,4-bis(methyltriazeno)-trans-2-butene, 1,4-Bis(methyltriazeno)-trans-2-butene], the “interstrand crosslinking” value in data set [2] (10 mM bistriazene) is “produce stable crosslinked species in oligonucleotides”. Also, the cytotoxic activity result was “still significant activity against the lung cancer” in the data set on human tumor cell lines (setting [14]); “activity persisted at 10 ug/ml, especially for the large cell lung carcinoma LXFL529 and the renal cancer RXF423/17” in the data set on human tumor cell lines (setting [12]); “potent cytotoxic activity against all the tumors tested” with human tumor cell lines (setting [13]). Besides, in the data set on human tumor cell lines, the “cytotoxicity, overall statement” value is reported as “highly potent against several tumors, especially the large cell lung carcinoma”.

With `O=P1(N(CCCl)CCCl)NC(OO)CCO1` (stereo not shown) [CYCM, 4-hydroperoxycyclophosphamide, reference compound], the activity at 1 µg/mL in the data set with LXFL 529 (setting [15]) amounted to 115%; with PRCL DU145X it was 108%; in the data set with RXF 1220 it was 67%. For the same molecule, the results for the activity at 10 µg/mL in the data set on LXFL 529 (setting [15]), with PRCL DU145X and in the data set with RXF 1220 were 94%, 90% and 51%, respectively. The activity at 100 µg/mL in the data set with LXFL 529 (setting [15]) turned out to be 19%; with PRCL DU145X it was 47%; in the data set with RXF 1220, 9%.
